Article PMC8068134 (Toxins, 2021)
Like-named read-outs stand apart in the source and are kept apart here. Numbered stars: 1 amine (or outer) side, 2 acyl side, 3 side chain; on linkers, the order of the positions; unused ones are H or OH. Bridge positions count the residues as written; N and C are the ends. Square brackets hold non-standard residues; d marks the D form. Peptide text beside a SMILES is read from it. hTyr = N[C@@H](CCc1ccc(O)cc1)C(=O)O; NMeA = CN[C@@H](C)C(=O)O; CO = O=C([*:1])[*:2]

Legend:
physchem = format: physicochemical; conditions: cells or culture medium, 3rd day, mean ± SD, n = 3, read-out: Peptide Remaining Concentration (%), Negative Control, 3rd Day
Experimental: OD-corrected P. toxinivorans was transferred to the 96-well microplate in a solution with fresh culture media and individual peptides. For all experimental conditions, microplates were prepared to allow different sampling times over 7 days of incubation in a shaker incubator at 150 rpm and 28 °C. Three different plates were initially prepared maintaining the same conditions, and they were, respectively, taken to be considered as sampling time at 0, 3, and 7th days. This procedure was established in order to sample only once from each well to avoid the effect of differing volumes and potential contamination. At each sampling time, 150 µL were taken and added to 150 µL of 80% aqueous methanol solution with 2% formic acid (in a 1.5 mL centrifuge tube) in order to kill bacteria and stop their metabolism, as well as to precipitate large proteins, which could affect analytical procedures. Samples were centrifuged for 15 min at 13,000× g. Supernatants were recovered, 1:10 diluted (100:900 μL) in aqueous methanol 80% and stored at −20 °C until ultrahigh performance liquid chromatography coupled to mass spectrometry analysis (UPLC–MS). This experimental design was applied in all experiments in order to evaluate the biodegradation of peptides by P. toxinivorans. All experimental conditions were carried out in biological replicates (n = 3) and with negative controls without bacteria.
All peptides studied were analyzed by UPLC–PDA–MS/MS (Waters®, Manchester, UK) as described previously by Turner et al.. Briefly, chromatographic separation was carried out using a Waters ACQUITY UPLC BEH C18 column (1.7 µm, 2.1 × 100 mm) held at 60 °C. Samples were kept in the sample manager at 10 °C and the injection volume was 5 µL. Mobile phase consisted of (A) water + 0.025% formic acid and (B) acetonitrile + 0.025% formic acid at a flow rate of 0.6 mL/min. The gradient consisted of 2% B initial condition rising to 25% B at 0.5 min holding until 1.5 min, rising to 40% B at 3.0 min, increasing further to 50% B at 4 min, a quick rise to 95% B and 4.1 min and held until 4.5 min before dropping back to 2% B at 5 min. Detection wavelength was set at 238 nm. Mass spectrometric detection was performed with a triple quadrupole mass spectrometer (Waters Xevo TQ-XS, Manchester, UK) equipped with an electrospray ionization (ESI) interface operating in positive ionization mode. Operational parameters were as follow: 150 °C source temperature, 600 °C desolvation temperature, 600 L/h desolvation gas flow (N2), 150 L/h cone gas flow, and 0.15 mL/min collision gas flow (Ar). Capillary voltage was held at 1.0 kV. Multiple Reaction Monitoring (MRM) transitions used as well as retention time, chemical structure, and respective formula of peptides can be found in Table S2. […]

[1] = enzymatic activity of a Sphingomonas species that possess mlr pathway; conditions: cited from earlier work
[2] = Y2 strain culture; individual peptide, peptide mix, and M. aeruginosa crude extract; conditions: Sphingosinicella microcystinivorans (Y2 strain)
[3] = Paucibacter toxinivorans (2C20) culture (OD600 0.4) in R2A media, pure MC-LR; conditions: Paucibacter toxinivorans 2C20 strain, 28 °C, up to 7 days
[4] = Paucibacter toxinivorans (2C20) culture in R2A media with cyanopeptide mix; conditions: Paucibacter toxinivorans 2C20 strain, 28 °C, up to 7 days
[5] = enzymatic biodegradation product of Sphingopyxis sp. USTB05; conditions: cited from earlier work
[6] = Individual peptide, 10 μg/mL, UPLC-MS/MS

Question: For `CC[C@H](C)[C@@H]1NC(=O)[C@@H]2CSC(=N2)[C@@H]([C@@H](C)CC)NC(=O)c2csc(n2)CNC(=O)[C@H]2N=C1O[C@@H]2C` [AC-A, aerucyclamide A], which remaining at 72 h (physchem; In MIX: MC-LR 10 μg/mL, other cyanopeptides 1 µg/mL) is on record?
Answer: The remaining at 72 h was 109 ± 5.6%.

Question: Which remaining at 72 h (physchem; [6]) does the source give for `CSCC[C@@H]1NC(=O)[C@@H]2CSC(=N2)[C@@H](Cc2ccccc2)NC(=O)c2csc(n2)CNC(=O)[C@H]2N=C1O[C@@H]2C` [AC-D, aerucyclamide D] here?
Answer: The remaining at 72 h was 113 ± 1.6%.

Question: For `CC(C)[C@@H]1NC(=O)[C@H](NC(=O)N[C@@H](Cc2ccc(O)cc2)C(=O)O)CCCCNC(=O)[C@H](Cc2ccccc2)NC(=O)[C@H](C)N(C)C(=O)[C@H](CCc2ccc(O)cc2)NC1=O` [ANBP-A, anabaenopeptin A] ({Tyr-CO}-[dK]V[hTyr][NMeA]F; lactam 1-C), which remaining at 72 h (physchem; [6]) is on record?
Answer: Its remaining at 72 h is 112 ± 8.1%.

Question: For `CC(C)[C@@H]1NC(=O)[C@H](NC(=O)N[C@@H](CCCNC(=N)N)C(=O)O)CCCCNC(=O)[C@H](Cc2ccccc2)NC(=O)[C@H](C)N(C)C(=O)[C@H](CCc2ccc(O)cc2)NC1=O` [ANBP-B, anabaenopeptin B] ({Arg-CO}-[dK]V[hTyr][NMeA]F; lactam 1-C), which remaining at 72 h (physchem; [6]) is on record?
Answer: Its remaining at 72 h is 100 ± 17.1%.

Question: Which fragment found [1] does the source give for Adda-Glu-Mdha-Ala-Leu-Masp-Arg here?
Answer: Its fragment found is “linearized MC-LR (biodegradation product A)”.

Question: And the not cleaved [2]?
Answer: Its not cleaved is “did not degrade any cyanobacterial peptides”.

Question: And the cleaved bond [3]?
Answer: Its cleaved bond is “Arg-Adda, day 3”.

Question: Which not cleaved [2] does the source give for Adda-Glu-Mdha-Ala-Leu-Masp-Phe here?
Answer: Its not cleaved is “did not degrade any cyanobacterial peptides”.

Question: And the cleaved bond [4]?
Answer: Its cleaved bond is “Phe-Adda, day 7”.

Question: Which fragment found [5] does the source give for Adda-Glu-Mdha-Ala-Tyr-Masp-Arg here?
Answer: Its fragment found is “linearized MC-YR (peptide C)”.

Question: What about the not cleaved [2] of the same compound?
Answer: The not cleaved was “did not degrade any cyanobacterial peptides”.

Question: What about the cleaved bond [4] of the same compound?
Answer: Its cleaved bond is “Arg-Adda, day 7”.
